Laboratory results as given in patent US20120088841A1, “COMPOSITION AND A METHOD OF TREATING CNS DISORDERS AND HYPERPIGMENTATION” (priority 2010, published 2012).
Converted amounts (≈) assume the structure as drawn. “And” between values parts separate entries of the source, which are not always exact repeats. Equal values may be shown once. Read-outs that look alike come from different tables or passages of the source. Marks after values point to notes of the source that are not given here. One block for each molecule: values may come before it.

Assays:
TNF alpha = TNF alpha inhibition invitro (comparative data); assay type: cell-based; conditions: read-out: TNF alpha inhibition (IC50 μg/ml)
Excerpt: (§1) The results are as tabulated below in table 2.

[1] = ORAC value (comparative data); conditions: invitro; higher is better
Excerpt: as §1

[2] = target: Mushroom Tyrosinase enzyme; assay: Tyrosinase inhibition; assay type: biochemical; conditions: 40 units Mushroom Tyrosinase, 0.7 mM L-Tyrosine disodium, 37° C.
Excerpt: Pigmentation is a multistep process critically dependent on the functional integrity of tyrosinase, the rate-limiting enzyme in melanin synthesis. Biosynthesis of melanin is initiated by the catalytic oxidation of tyrosine to 3, 4 dihydroxy phenylalanine (dopa) by tyrosinase. Subsequent reactions happen spontaneously eventually resulting in the synthesis of melanin. Under in vitro conditions, tyrosinase enzyme acts on L-Tyrosine forming a pink colored complex. This pink color intensity formed during the reaction is quenched in the presence of the inhibitor. The assay is performed in a 96 well clear microtitre plate. The compound hydroxychavicol, crude betel leaf extract and the reference standard in suitable vehicle (PBS or 0.2% DMSO) is pre incubated with 40 units of Mushroom Tyrosinase enzyme at 37° C. for 10 minutes. The reaction is initiated by adding 0.7 mM L-Tyrosine disodium and the absorbance is read after 10 minutes of incubation at 37° C. in FluostarOptima microplate reader at 492 nm. The dose dependent inhibitory activity of samples is calculated and the results are expressed as IC50 values using Graphpad prism software.

[3] = system: B16F1 mouse melanoma cells; assay: Inhibition of α-MSH induced melanogenesis in B16F1 mouse melanoma cell line; assay type: cell-based; conditions: B16-F1, 216 h, 0.6 nM MSH, 9 days treatment, read-out: Inhibition of MSH induced Melanin IC50
Procedure: Melanin synthesis can be directly studied in live animal cells. B16F1 mouse melanoma cells were seeded in a 6 well microtiter plate at a seeding density of 5000 cells per well in 2 ml DMEM medium per well. After 24 hours of incubation in a CO2 incubator, melanin production is induced by 0.6 nM […] by replacing the medium with medium containing […]. The cells were then treated with the compound hydroxychavicol, crude betel leaf extract and the reference standard over a period of 9 days with renewal of […] containing medium and sample at regular intervals of 3 days. Control wells were maintained without sample treatment and only with the vehicle used for sample preparation. After the incubation period, the medium was removed and the cells were scraped and washed in PBS. Thereafter, melanin was extracted by 1N NaOH in boiling water bath for 5 minutes. The absorbance of the melanin extract was read at 405 nm in a microplate reader. The inhibitory effect of the samples is calculated based on the decrease of melanin formation. The dose dependent inhibitory activity of samples is calculated and the results are expressed as IC50 values using Graphpad prism software.

ICV STZ treated rats = assay: Single trial passive avoidance test after ICV injection of STZ; assay type: in vivo; conditions: for initial latency: day 19, ICV STZ rats; for mean retention latency: day 20, ICV STZ rats (STZ Control 173±28 s)
Procedure: (§2) The injection was repeated on day 3.
Memory retention deficit was evaluated by a step through passive avoidance apparatus according to the method previously described by Mojard et al. (2007) on days 19th and 20th after 1st injection of STZ. On the acquisition trial, each rat was placed in the lighted chamber and after 60 s of habituation period, the guillotine door separating the lighted and dark chamber was opened, and the initial latency (IL) to enter the dark chamber was recorded. Immediately after the rat entered the dark chamber, the guillotine door was closed and an electric foot shock (75 V, 0.2 mA, 50 Hz) was delivered to the floor grids for 3 s. Five seconds later, the rat was removed from the dark chamber and returned to its home cage. Twenty-four hours later, the retention latency (RL) time was measured in the same way as in the acquisition trial, but foot shock was not delivered, and the latency time was recorded to a maximum of 600 s.

[4] = system: Reduced glutathione (GSH); assay: Estimation of reduced glutathione in brain of ICV STZ rats; assay type: in vivo; conditions: for GSH: brain homogenate, ICV STZ rats (STZ Control 223.21 ± 6.08)
Procedure: as §2
Reduced glutathione (GSH) in the brain was estimated according to the method described by Ellman (1959). 1 ml supernatant was precipitated with 1 ml of 4% sulfosalicylic acid and cold digested at 4° C. for 1 h. The samples were centrifuged at 1200×g for 15 min at 4° C. To 1 ml of this supernatant, 2.7 ml of phosphate buffer (0.1 M, pH 8) and 0.2 ml of 5,5′-dithiobis-(2-nitrobenzoic acid) (DTNB) were added. The yellow colour developed was read immediately at 412 nm using spectrophotometer. The results were calculated using the molar extinction coefficient of chromophore (1.36×104 M−1 cm−1) and expressed as a percentage of the control.

CD3+ cell population = assay: Flow cytometric evaluation of cell-surface marker CD3+ in peripheral blood lymphocytes; assay type: in vivo, rats
Procedure: as §2
(§3) CD3 monoclonal antibody that reacts with the CD3 differentiation antigen expressed on MHC class I T cytotoxic cells as well as MHC class II T helper cells, was used for the determination of activated T cell populations in the blood and CD19 monoclonal antibody that reacts with CD19 antigen expressed on B cells was used for the estimation of B cell population. Tubes were incubated in dark for 30 min at room temperature. Subsequently, 2 ml of 1×FACS lyses solution was added at room temperature with gentle mixing and these samples were then spinned at (300-400×g). The supernatant was aspirated and samples were given 3 washings of phosphate buffer saline (pH 7.4). The resulting stained cell pellet was resuspended in 500 μl of phosphate buffer saline and was run on a flow cytometer. Acquisition and the analysis were done directly on flow cytometer using Cell Quest Pro software (BD Biosciences) (Bani et al., 2005, 2006).

CD19+ cell population = assay: Flow cytometric evaluation of cell-surface marker CD19+ in peripheral blood lymphocytes; assay type: in vivo, rats
Procedure: as §2, §3

IFN-γ = assay: Estimation of intracellular cytokine IFN-γ in CD3+ T cells; assay type: in vivo, rats
Procedure: as §2
Magnetic-bead Assisted Cell Sorting (MACS) separated the CD3+ T cells that were then permeabilised with 500 μl of FACS permeabilising solution (Becton Dickinson) for 10 min at room temperature. With this technique, specific cells that have antibody-coated micro beads are separated under a strong magnetic field magnetically from the whole cell suspension according to their cell-surface antigen. After centrifugation, cells were incubated with anti-rat IFN-γ-PE for 30 min in the dark at room temperature. After washing in PBS, cells were fixed in […] of 1% formaldehyde PBS. A total of 10,000-gated events were acquired in on a FACS BD LSR II flow cytometer (Bani et al., 2005, 2006) and analysis was done on flow cytometer using Cell Quest Pro software (BD Biosciences).

Balb/C mice = conditions: mouse, in vivo, po, 1000 mg/kg
Malondialdehyde (MDA) = assay: Measurement of lipid peroxidation (MDA) in brain of ICV STZ rats; conditions: for MDA (LP): brain homogenate, ICV STZ rats (STZ Control 415.21 ± 10.07)

IC50 (TNF alpha; invitro): 515 µg/mL (≈ 3140 µM)
SMILES: CC=Cc1ccc(O)c(OC)c1 [Isoeugenol]
ORAC value (μmol trolox equivalents/g) [1]: 15248 μmol trolox equivalents/g

Tyrosinase inhibition IC50 [2]: IC50—9.33 μg/ml
IC50 [3]: 25 µg/mL (≈ 142 µM)
SMILES: O=C1O[C@H]([C@@H](O)CO)C(O)=C1O [Ascorbic acid, reference compound]

SMILES: C=CCc1ccc(O)c(O)c1 [HC, Hydroxychavicol]
initial latency (ICV STZ treated rats; HC 0.5 mg/kg p.o.): 12.21 ± 1.42 s
initial latency (ICV STZ treated rats; HC 1 mg/kg p.o.): 17.33 ± 2.6 s
mean retention latency (ICV STZ treated rats; HC 1 mg/kg p.o.): 291.87 ± 25.66 s
initial latency (ICV STZ treated rats; HC 2 mg/kg p.o.): 15.92 ± 1.09 s
mean retention latency (ICV STZ treated rats; HC 2 mg/kg p.o.): 301.09 ± 13.67 s
initial latency (ICV STZ treated rats; HC 4 mg/kg p.o.): 18.21 ± 2.96 s
GSH percentage activity against STZ Control group (stimulation) ([4]; HC 0.5 mg/kg p.o.): (61.03↑)* %
GSH ([4]; HC 0.5 mg/kg p.o.): 359.44 ± 5.47 µg/g
GSH percentage activity against STZ Control group (stimulation) ([4]; HC 1.0 mg/kg p.o.): (62.52↑)* %
GSH ([4]; HC 1.0 mg/kg p.o.): 362.78 ± 6.24 µg/g
GSH percentage activity against STZ Control group (stimulation) ([4]; HC 2.0 mg/kg p.o.): (66.52↑)* %
GSH ([4]; HC 2.0 mg/kg p.o.): 371.69 ± 6.17 µg/g and 371.69 ± 6.117 µg/g
GSH percentage activity against STZ Control group (stimulation) ([4]; HC 4.0 mg/kg p.o.): (67.04↑)* %
GSH ([4]; HC 4.0 mg/kg p.o.): 372.87 ± 3.18 µg/g
mean percentage of CD3+ cells in the lymphocyte population (CD3+ cell population; HC 0.5 mg/kg p.o. (STZ Control 62.21±4.65%)): 51.19±1.78%
mean percentage of CD3+ cells in the lymphocyte population (CD3+ cell population; HC 2 mg/kg p.o. (STZ Control 62.21±4.65%)): 45.28±3.43%
mean percentage of CD3+ cells in the lymphocyte population (CD3+ cell population; HC 4 mg/kg p.o. (STZ Control 62.21±4.65%)): 44.49±4.55%
mean percentage of CD19+ cells in the lymphocyte population (CD19+ cell population; HC 0.5 mg/kg p.o. (STZ Control 27.08±2.77%)): 21.43±1.39%
mean percentage of CD19+ cells in the lymphocyte population (CD19+ cell population; HC 1 mg/kg p.o. (STZ Control 27.08±2.77%)): 17.08±2.09%
mean percentage of CD19+ cells in the lymphocyte population (CD19+ cell population; HC 2 mg/kg p.o. (STZ Control 27.08±2.77%)): 16.97±1.88%
mean percentage of CD19+ cells in the lymphocyte population (CD19+ cell population; HC 4 mg/kg p.o. (STZ Control 27.08±2.77%)): 16.01±1.07%
expression of IFN-γ in CD3+ T cells (IFN-γ; HC 2 mg/kg p.o. (STZ Control 18.18±0.97%)): 12.08±0.21%
expression of IFN-γ in CD3+ T cells (IFN-γ; HC 4 mg/kg p.o. (STZ Control 18.18±0.97%)): 11.91±0.87%
IC50 (TNF alpha): 88.7 µg/mL (≈ 590 µM)
IC50 [3]: 1.3 µg/mL (≈ 8.66 µM)
untoward symptom or mortality, general behaviour (Balb/C mice): No untoward symptom or any mortality
MDA (LP) percentage activity against STZ Control group (suppression) (Malondialdehyde (MDA); HC 0.5 mg/kg p.o.): (27.47↓)* %
MDA (LP) (Malondialdehyde (MDA); HC 0.5 mg/kg p.o.): 301.15 ± 6.34 nmol/mg
MDA (LP) percentage activity against STZ Control group (suppression) (Malondialdehyde (MDA); HC 1.0 mg/kg p.o.): (39.26↓)* %
MDA (LP) (Malondialdehyde (MDA); HC 1.0 mg/kg p.o.): 252.18 ± 4.08 nmol/mg
MDA (LP) percentage activity against STZ Control group (suppression) (Malondialdehyde (MDA); HC 2.0 mg/kg p.o.): (42.87↓)* %
MDA (LP) (Malondialdehyde (MDA); HC 2.0 mg/kg p.o.): 237.19 ± 3.44 nmol/mg
MDA (LP) percentage activity against STZ Control group (suppression) (Malondialdehyde (MDA); HC 4.0 mg/kg p.o.): (46.85↓)* %
MDA (LP) (Malondialdehyde (MDA); HC 4.0 mg/kg p.o.): 220.68 ± 4.32 nmol/mg

IC50 (TNF alpha; invitro): 114 µg/mL (≈ 694 µM)
SMILES: C=CCc1ccc(O)c(OC)c1 [Eugenol]
ORAC value (μmol trolox equivalents/g) [1]: 13921 μmol trolox equivalents/g
